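Following 48 hours of exposure in 96-well plates, responses at five concentrations were used to interpolate endpoints linearly. The concentration for 50% growth inhibition is given as GI50.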 Active and inactive are the calls of the source. Cut-off read from the data, not from the text of the source: active = GI50 up to about 1.1 µM and inactive = higher.
Key:
Assay in all cases: growth of human tumour cells (NCI), 48 h
786-0 = tested on: 786-0
A498 = tested on: A498
A549 = tested on: A549
ACHN = tested on: ACHN
BT-549 = tested on: BT-549
CAKI-1 = tested on: CAKI-1
CCRF-CEM = tested on: CCRF-CEM
COLO 205 = tested on: COLO 205
DU-145 = tested on: DU-145
EKVX = tested on: EKVX
HCC 2998 = tested on: HCC 2998
HCT-116 = tested on: HCT-116
HCT-15 = tested on: HCT-15
HOP-62 = tested on: HOP-62
HOP-92 = tested on: HOP-92
HT-29 = tested on: HT-29
Hs-578T = tested on: Hs-578T
K562 = tested on: K562
KM12 = tested on: KM12
LOX IMVI = tested on: LOX IMVI
M14 = tested on: M14
MCF7 = tested on: MCF7
MDA-MB-231 = tested on: MDA-MB-231
MDA-MB-435 = tested on: MDA-MB-435
MDA-N = tested on: MDA-N
MOLT-4 = tested on: MOLT-4
Malme-3M = tested on: Malme-3M
NCI-H226 = tested on: NCI-H226
NCI-H23 = tested on: NCI-H23
NCI-H460 = tested on: NCI-H460
NCI-H522 = tested on: NCI-H522
NCI/ADR-RES = tested on: NCI/ADR-RES
OVCAR-3 = tested on: OVCAR-3
OVCAR-4 = tested on: OVCAR-4
OVCAR-5 = tested on: OVCAR-5
OVCAR-8 = tested on: OVCAR-8
PC-3 = tested on: PC-3
RPMI-8226 = tested on: RPMI-8226
RXF 393 = tested on: RXF 393
SF-268 = tested on: SF-268
SF-295 = tested on: SF-295
SF-539 = tested on: SF-539
SK-MEL-28 = tested on: SK-MEL-28
SK-MEL-2 = tested on: SK-MEL-2
SK-MEL-5 = tested on: SK-MEL-5
SK-OV-3 = tested on: SK-OV-3
SN12C = tested on: SN12C
SNB-19 = tested on: SNB-19
SNB-75 = tested on: SNB-75
SW-620 = tested on: SW-620
T47D = tested on: T47D
TK-10 = tested on: TK-10
U-251 = tested on: U-251
UACC-257 = tested on: UACC-257
UACC-62 = tested on: UACC-62
UO-31 = tested on: UO-31
HL-60 = tested on: HL-60
IGROV-1 = tested on: IGROV-1
SR = tested on: SR

Structure (SMILES): COc1ccc([C@H]2[C@H]3COC(=O)[C@H]3C(C#N)=C3Sc4ccccc4N32)cc1
- GI50 (786-0): 36.7 µM (inactive)
- GI50 (A498): 43.7 µM (inactive)
- GI50 (A549): 30.5 µM (inactive)
- GI50 (ACHN): 37.6 µM (inactive)
- GI50 (BT-549): 5.37 µM (inactive)
- GI50 (CAKI-1): 21.7 µM (inactive)
- GI50 (CCRF-CEM): 11.9 µM (inactive)
- GI50 (COLO 205): 15.3 µM (inactive)
- GI50 (DU-145): 19.2 µM (inactive)
- GI50 (EKVX): 37.4 µM (inactive)
- GI50 (HCC 2998): 44.3 µM (inactive)
- GI50 (HCT-116): 21.7 µM (inactive)
- GI50 (HCT-15): 25.8 µM
- GI50 (HOP-62): 39 µM (inactive)
- GI50 (HOP-92): 85.1 µM (inactive)
- GI50 (HT-29): 12.4 µM (inactive)
- GI50 (Hs-578T): 31.1 µM (inactive)
- GI50 (K562): 41.4 µM (inactive)
- GI50 (KM12): 27.2 µM (inactive)
- GI50 (LOX IMVI): 20.2 µM (inactive)
- GI50 (M14): 56.5 µM (inactive)
- GI50 (MCF7): 27.3 µM (inactive)
- GI50 (MDA-MB-231): 28.3 µM (inactive)
- GI50 (MDA-MB-435): 44.2 µM (inactive)
- GI50 (MDA-N): 28.8 µM (inactive)
- GI50 (MOLT-4): 13.4 µM (inactive)
- GI50 (Malme-3M): 43 µM (inactive)
- GI50 (NCI-H226): 33.1 µM (inactive)
- GI50 (NCI-H23): 22.8 µM (inactive)
- GI50 (NCI-H460): 25.4 µM (inactive)
- GI50 (NCI-H522): 18.1 µM (inactive)
- GI50 (NCI/ADR-RES): 15.5 µM (inactive)
- GI50 (OVCAR-3): 16.4 µM (inactive)
- GI50 (OVCAR-4): 33.7 µM (inactive)
- GI50 (OVCAR-5): 80.5 µM (inactive)
- GI50 (OVCAR-8): 51.3 µM (inactive)
- GI50 (PC-3): 17.3 µM (inactive)
- GI50 (RPMI-8226): 20.7 µM (inactive)
- GI50 (RXF 393): 3.11 µM (inactive)
- GI50 (SF-268): 71.6 µM (inactive)
- GI50 (SF-295): 16.3 µM (inactive)
- GI50 (SF-539): 22.3 µM (inactive)
- GI50 (SK-MEL-28): 53.5 µM (inactive)
- GI50 (SK-MEL-2): 19.1 µM (inactive)
- GI50 (SK-MEL-5): 21.1 µM (inactive)
- GI50 (SK-OV-3): 39.9 µM (inactive)
- GI50 (SN12C): 15.1 µM (inactive)
- GI50 (SNB-19): 48.3 µM (inactive)
- GI50 (SNB-75): 9.64 µM (inactive)
- GI50 (SW-620): 48.6 µM (inactive)
- GI50 (T47D): 8.89 µM (inactive)
- GI50 (TK-10): 40.6 µM (inactive)
- GI50 (U-251): 24.6 µM (inactive)
- GI50 (UACC-257): 40.6 µM (inactive)
- GI50 (UACC-62): 28.8 µM (inactive)
- GI50 (UO-31): 23.4 µM (inactive)

Structure (SMILES): CCCCc1ccc(-n2sc3ncc(C)cc3c2=O)cc1
- GI50 (786-0): 34.9 µM (inactive)
- GI50 (A549): 20.6 µM (inactive)
- GI50 (ACHN): 30.9 µM (inactive)
- GI50 (BT-549): 19.1 µM (inactive)
- GI50 (CCRF-CEM): 8.18 µM (inactive)
- GI50 (COLO 205): 20.5 µM (inactive)
- GI50 (DU-145): 30.3 µM (inactive)
- GI50 (EKVX): 19.5 µM (inactive)
- GI50 (HCC 2998): 37.5 µM (inactive)
- GI50 (HCT-116): 78 µM (inactive)
- GI50 (HCT-15): 16.4 µM
- GI50 (HL-60): 8.57 µM (inactive)
- GI50 (HOP-62): 30.3 µM (inactive)
- GI50 (HOP-92): 26.8 µM (inactive)
- GI50 (Hs-578T): > 100 µM (inactive)
- GI50 (IGROV-1): 21.7 µM (inactive)
- GI50 (K562): 43.9 µM (inactive)
- GI50 (KM12): 22.7 µM (inactive)
- GI50 (LOX IMVI): 18.2 µM (inactive)
- GI50 (M14): 13.4 µM (inactive)
- GI50 (MCF7): 19.5 µM (inactive)
- GI50 (MDA-MB-231): 25.6 µM (inactive)
- GI50 (MDA-MB-435): 79.8 µM (inactive)
- GI50 (MDA-N): 51.5 µM (inactive)
- GI50 (MOLT-4): 25.2 µM (inactive)
- GI50 (Malme-3M): 25.8 µM (inactive)
- GI50 (NCI-H226): > 100 µM (inactive)
- GI50 (NCI-H23): 30.1 µM (inactive)
- GI50 (NCI-H460): 12.6 µM (inactive)
- GI50 (NCI-H522): 16.3 µM (inactive)
- GI50 (NCI/ADR-RES): 27.6 µM (inactive)
- GI50 (OVCAR-3): 18.5 µM (inactive)
- GI50 (OVCAR-4): 33.7 µM (inactive)
- GI50 (OVCAR-5): 22.7 µM (inactive)
- GI50 (OVCAR-8): 21 µM (inactive)
- GI50 (PC-3): 15 µM (inactive)
- GI50 (RPMI-8226): 22 µM (inactive)
- GI50 (RXF 393): 27.2 µM (inactive)
- GI50 (SF-295): 45.2 µM (inactive)
- GI50 (SK-MEL-28): 96.2 µM (inactive)
- GI50 (SK-MEL-2): 10.6 µM (inactive)
- GI50 (SK-MEL-5): 21.5 µM (inactive)
- GI50 (SK-OV-3): 28.6 µM (inactive)
- GI50 (SN12C): 21.9 µM (inactive)
- GI50 (SNB-19): > 100 µM (inactive)
- GI50 (SNB-75): 42.9 µM (inactive)
- GI50 (SR): 75.5 µM (inactive)
- GI50 (SW-620): 27.4 µM (inactive)
- GI50 (T47D): 22.6 µM (inactive)
- GI50 (TK-10): 29.1 µM (inactive)
- GI50 (U-251): 32.7 µM (inactive)
- GI50 (UACC-62): 32.4 µM (inactive)
- GI50 (UO-31): 6.1 µM (inactive)

Structure (SMILES): Cc1nc2c(=O)n(-c3ccccc3)c3ccccc3c2o1
- GI50 (786-0): > 100 µM (inactive)
- GI50 (A498): > 100 µM (inactive)
- GI50 (A549): > 100 µM (inactive)
- GI50 (ACHN): > 100 µM (inactive)
- GI50 (BT-549): > 100 µM (inactive)
- GI50 (CAKI-1): > 100 µM (inactive)
- GI50 (CCRF-CEM): > 100 µM (inactive)
- GI50 (COLO 205): > 100 µM (inactive)
- GI50 (DU-145): > 100 µM (inactive)
- GI50 (EKVX): > 100 µM (inactive)
- GI50 (HCC 2998): > 100 µM (inactive)
- GI50 (HCT-116): > 100 µM (inactive)
- GI50 (HCT-15): > 100 µM
- GI50 (HL-60): > 100 µM (inactive)
- GI50 (HOP-62): > 100 µM (inactive)
- GI50 (HOP-92): > 100 µM (inactive)
- GI50 (HT-29): > 100 µM (inactive)
- GI50 (Hs-578T): > 100 µM (inactive)
- GI50 (IGROV-1): > 100 µM (inactive)
- GI50 (K562): > 100 µM (inactive)
- GI50 (KM12): > 100 µM (inactive)
- GI50 (LOX IMVI): > 100 µM (inactive)
- GI50 (M14): > 100 µM (inactive)
- GI50 (MCF7): > 100 µM (inactive)
- GI50 (MDA-MB-231): > 100 µM (inactive)
- GI50 (MDA-MB-435): > 100 µM (inactive)
- GI50 (MDA-N): > 100 µM (inactive)
- GI50 (MOLT-4): > 100 µM (inactive)
- GI50 (Malme-3M): > 100 µM (inactive)
- GI50 (NCI-H226): > 100 µM (inactive)
- GI50 (NCI-H23): > 100 µM (inactive)
- GI50 (NCI-H460): > 100 µM (inactive)
- GI50 (NCI/ADR-RES): > 100 µM (inactive)
- GI50 (OVCAR-3): > 100 µM (inactive)
- GI50 (OVCAR-4): > 100 µM (inactive)
- GI50 (OVCAR-5): > 100 µM (inactive)
- GI50 (OVCAR-8): > 100 µM (inactive)
- GI50 (PC-3): > 100 µM (inactive)
- GI50 (RPMI-8226): > 100 µM (inactive)
- GI50 (RXF 393): > 100 µM (inactive)
- GI50 (SF-268): > 100 µM (inactive)
- GI50 (SF-295): > 100 µM (inactive)
- GI50 (SF-539): > 100 µM (inactive)
- GI50 (SK-MEL-28): > 100 µM (inactive)
- GI50 (SK-MEL-2): > 100 µM (inactive)
- GI50 (SK-MEL-5): > 100 µM (inactive)
- GI50 (SK-OV-3): > 100 µM (inactive)
- GI50 (SN12C): > 100 µM (inactive)
- GI50 (SNB-19): > 100 µM (inactive)
- GI50 (SNB-75): > 100 µM (inactive)
- GI50 (SW-620): > 100 µM (inactive)
- GI50 (T47D): > 100 µM (inactive)
- GI50 (TK-10): > 100 µM (inactive)
- GI50 (U-251): > 100 µM (inactive)
- GI50 (UACC-257): > 100 µM (inactive)
- GI50 (UACC-62): > 100 µM (inactive)
- GI50 (UO-31): > 100 µM (inactive)
